Measurements from patent US20200102293A1, “LDHA ACTIVITY INHIBITORS” (ARCTIC PHARMA AS, priority 2017, published 2020).

Tests used:
LDHA = LDHA (Homo sapiens, UniProt P00338); assay: Coupled diaphorase assay, LDHA; assay type: biochemical; conditions: 4-7 nM LDHA, 500 μM lactate, 150 μM NAD+, lactate to pyruvate direction
Source text: (§1) The inhibitory properties of the compounds were investigated using a coupled enzyme assay that links the lactate dehydrogenase (LDH) reaction to the production of fluorescent resorufin by diaphorase.
(§2) Human lactate dehydrogenases (LDH) catalyze the reversible interconversion between pyruvate and lactate. LDH is capable of catalyzing both the forward (pyruvate to lactate) and the reverse (lactate to pyruvate) reaction, using either NADH or NAD+ as cofactor. The reaction proceeds in either direction dependent on various factors, such as substrate availability, the presence of necessary cofactors, temperature and pH. Different isoforms (LDH A, B, and C) of the enzyme favor different reaction directions—LDHA prefers the conversion from pyruvate to lactate, whereas LDHB preferentially oxidizes lactate to pyruvate.
(§3) The coupled assay relies on the oxidation of NAD^+ to NADH throughout the conversion of lactate to pyruvate by LDH (isoforms A, B and C). The produced NADH serves as cofactor in the diaphorase reaction, which reduces non-fluorescent resazurin to fluorescent resorufin. Therefore, the assay indirectly monitors the rate of pyruvate production. Although the consumption of NADH can be directly monitored due to the intrinsic fluorescence of the molecule (excitation: 340 nm, emission: 460 nm) there are problems linked to the direct readout method. […] Shifting the assay to longer wavelengths by coupling the LDH reaction to the conversion of resazurin to fluorescent resorufin by diaphorase reduces this compound interference. The assay direction was thus chosen to provide a robust and reliable assay.
(§4) Compounds were tested in duplicates using 2-fold, 3-fold or 4-fold serial dilutions including 11 individual concentrations, starting from 5000 μM to 30 μM. […] The controls allowed for the calculation of the percentage inhibition for each data point. […] Enzyme solution leading to final concentrations of 4-7 nM LDHA or 6 nM LDHB, as well as 0.2 U/mI diaphorase in the reaction well was dispensed into 384-well plates (Greiner bio-one) using a CyBi®-SELMA robotic pipettor. Compound dilutions and the enzyme were incubated for at least 20 min at room temperature. […] The reaction was quenched by the addition of a stop solution (final concentrations: 20 mM EDTA, 400 mM NaCl, 40 mM pyruvate). Fluorescence was read out after 5 min of incubation at an excitation wavelength of 560 nm and an emission wavelength of 590 nm on a Perkin Elmer Victor X plate reader.
(§5) Therefore, an enzyme solution only containing diaphorase was incubated with the compound dilution series.
(§6) Dose response curves were fitted in KaleidaGraph (www.synergy.com) or Dotmatics software package (www.dotmatics.com) using a standard 4-parameter fit (Levenberg-Marquardt fitting procedure), resulting in IC50 values for the test compounds.

LDHB = LDHB (Homo sapiens, UniProt P07195); assay: Coupled diaphorase assay, LDHB; assay type: biochemical; conditions: 6 nM LDHB, 500 μM lactate, 150 μM NAD+, lactate to pyruvate direction
Source text: as §1, §2, §3, §4, §5, §6

LDH = conditions: in vitro; cited from earlier work
[1] = tested on: mice with temporal-lobe epilepsy; conditions: directly injected into the hippocampus; cited from earlier work
[2] = in vivo; cited from earlier work
[3] = tested on: MIA PaCa-2 human pancreatic cells; conditions: MIA PaCa-2 cells; cited from earlier work

LDHB, sequence (P07195 whole entry): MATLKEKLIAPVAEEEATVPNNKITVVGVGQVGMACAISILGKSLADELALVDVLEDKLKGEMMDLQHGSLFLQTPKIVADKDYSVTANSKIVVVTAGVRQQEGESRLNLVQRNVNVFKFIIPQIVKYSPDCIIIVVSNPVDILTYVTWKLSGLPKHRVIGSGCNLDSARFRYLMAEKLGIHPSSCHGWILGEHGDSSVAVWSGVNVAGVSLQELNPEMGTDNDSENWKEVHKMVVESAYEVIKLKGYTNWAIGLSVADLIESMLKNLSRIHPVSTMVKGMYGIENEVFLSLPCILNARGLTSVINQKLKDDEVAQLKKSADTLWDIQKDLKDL

SMILES	IC50 (LDHA) [µM]	IC50 (LDHB) [µM]	other results
COCCOC(=O)OC1=C(Sc2ccccc2Cl)C(=O)NC(c2ccsc2)(c2cccc(OCC3CCCC3)n2)C1 (stereo not drawn) [Example 4, 5-((2-chlorophenyl)thio)-6′-(cyclopentylmethoxy)-6-oxo-2-(thiophen-3-yl)-1,2,3,6-tetrahydro-[2,2′-bipyridin]-4-yl (2-methoxyethyl) carbonate]	> 200	> 200	–
CCCCCCCCCC(=O)OC1=C(Sc2ccccc2Cl)C(=O)NC(c2ccsc2)(c2cccc(OC3COC3)n2)C1 (stereo not drawn) [Example 7, 5-((2-chlorophenyl)thio)-6′-(oxetan-3-yloxy)-6-oxo-2-(thiophen-3-yl)-1,2,3,6-tetrahydro-[2,2′-bipyridin]-4-yl decanoate]	1 to 100	100 to 200	–
CCOC(=O)OC1=C(Sc2ccccc2Cl)C(=O)NC(c2ccc(Br)cc2)(c2ccsc2)C1 (stereo not drawn) [Example 1, 2-(4-bromophenyl)-5-[(2-chlorophenyl)sulfanyl]-6-oxo-2-(thiophen-3-yl)-1,2,3,6-tetrahydropyridin-4-yl ethyl carbonate]	1 to 100	> 200	–
COC(=O)OC1=C(Sc2ccccc2Cl)C(=O)NC(c2ccc(N3CCOCC3)cc2)(c2ccsc2)C1 (stereo not drawn) [Example 5, 5-((2-chlorophenyl)thio)-2-(4-morpholinophenyl)-6-oxo-2-(thiophen-3-yl)-1,2,3,6-tetrahydropyridin-4-yl methyl carbonate]	1 to 100	–	–
O=C1CC(c2ccsc2)(c2cccc(OCC3CCCC3)n2)NC(=O)C1Sc1ccccc1Cl (stereo not drawn) [Example 9, 3-((2-chlorophenyl)thio)-6-(6-(cyclopentylmethoxy)pyridin-2-yl)-6-(thiophen-3-yl)piperidine-2,4-dione, reference compound]	1 to 100	1 to 100	–
CCOC(=O)OC1=C(Sc2ccccc2Cl)C(=O)NC(c2ccsc2)(c2cccc(Br)n2)C1 (stereo not drawn) [Example 3, 6′-bromo-5-((2-chlorophenyl)thio)-6-oxo-2-(thiophen-3-yl)-1,2,3,6-tetrahydro-[2,2′-bipyridin]-4-yl ethyl carbonate]	> 200	> 200	–
NC(=O)C(=O)O [Oxamate]	–	–	concentration range inhibiting LDH enzyme activity (LDH): mM range; effect on seizures [1]: suppress their seizures
COC(=O)OC1=C(Sc2ccccc2Cl)C(=O)NC(c2ccsc2)(c2ccc(Br)cn2)C1 (stereo not drawn) [Example 6, 5′-bromo-5-((2-chlorophenyl)thio)-6-oxo-2-(thiophen-3-yl)-1,2,3,6-tetrahydro-[2,2′-bipyridin]-4-yl methyl carbonate]	> 200	> 200	–
O=C1CC(c2ccc(N3CCOCC3)cc2)(c2ccsc2)NC(=O)C1Sc1ccccc1Cl (stereo not drawn) [GNE-140]	–	–	clearance [2]: rapid clearance; time of continuous LDHA inhibition until cell death [3]: ≥ 2 days
CC(C)COC(=O)OC1=C(Sc2ccccc2Cl)C(=O)NC(c2ccc(N3CCOCC3)cc2)(c2ccsc2)C1 (stereo not drawn) [Example 2, 5-((2-chlorophenyl)thio)-2-(4-morpholinophenyl)-6-oxo-2-(thiophen-3-yl)-1,2,3,6-tetrahydropyridin-4-yl isobutyl carbonate]	> 200	–	–
